Source: patent publication US9138492B2, “Particle containing hydrophobic dye having cyanine structure, and contrast agent containing the particle” (CANON KABUSHIKI KAISHA, priority 2012, dated 2015)

Assay: Evaluation of hydrophobicity degree of dye by TLC (Rf value)
Assay type: physicochemical
Settings: of the dye used; TLC glass plate RP-18, methanol containing 1 wt % lithium chloride
Procedure: (Evaluation Method for Hydrophobicity Degree of Hydrophobic Dye Having Cyanine Structure) In order to compare the hydrophobicity degrees of hydrophobic dyes each having a cyanine structure, an evaluation was performed through use of a thin-layer liquid chromatography (hereinafter may be abbreviated as TLC) method. A TLC glass plate RP-18 (manufactured by Merck) was used as a plate for development, and a methanol solution containing 1 wt % of lithium chloride was used as a developing solvent. According to an ordinary method, a dye solution was spotted on the origin, and a relative migration distance (hereinafter may be abbreviated as Rf value) was calculated based on the following equation. Rf value=Distance from origin to center of spot of component/Distance from origin to solvent front

SMILES	Rf value
CN1/C(=C/C=C/C=C/C=C/C2=[N+](C)c3ccccc3C2(C)C)C(C)(C)c2ccccc21 [Chemical formula (A1), 1,1′,3,3,3′,3′-hexamethylindotricarbocyanine iodide]	0.45
CCN1/C(=C/C=C/C=C/C=C/C2=[N+](CC)c3ccccc3C2(C)C)C(C)(C)c2ccccc21 [Chemical formula (A2), 3H-indolium, 1-ethyl-2-[7-(1-ethyl-1,3-dihydro-3,3-dimethyl-2H-indol-2-ylidene)-1,3,5-heptatrien-1-yl]-3,3-dimethyl-, iodide]	0.5
CN1/C(=C/C=C2\CCCC(/C=C/C3=[N+](C)c4ccc5ccccc5c4C3(C)C)=C2Cl)C(C)(C)c2c1ccc1ccccc21 [Chemical formula (A3), 2-[2-[2-chloro-3-[2-(1,3-dihydro-1,1,3-trimethyl-2H-benzo[e]-indol-2-ylidene)-ethylidene]-1-cyclohexen-1-yl]-ethenyl]-1,1,3-trimethyl-1H-benzo[e]indolium perchlorate]	0.09
CN1\C(=C/C=C/C=C/C=C/C2=[N+](C)c3ccccc3C2(C)C)C(C)(C)c2ccccc21 [Chemical formula (C1), 1,1′,3,3,3′,3′-hexamethylindotricarbocyanine perchlorate]	0.45
CN1/C(=C/C=C/C=C/C=C/C2=[N+](C)c3ccc4ccccc4c3C2(C)C)C(C)(C)c2c1ccc1ccccc21 [Chemical formula (C2), 1,1′,3,3,3′,3′-hexamethyl-4,4′,5,5′-dibenzo-2,2′-indotricarbocyanine perchlorate]	0.31
